Literature values as cited in patent publication US20200353057A1, “REDUCING IMMUNOGENICITY TO PEGLOTICASE” (Horizon Pharma Rheumatology LLC, priority 2019, published 2020).
Read-outs that look alike come from different tables or passages of the source.

How the values were obtained:
[1] = for Detectable in urine: after 8 hours; for Bound to serum proteins: in vivo
[2] = system: renal transplant and RA patients
[3] = system: rats
[4] = system: rabbits
[5] = system: patients treated with allopurinol; details: human, in vivo
[6] = system: patients with refractory chronic gout
[7] = system: patients with refractory chronic gout; details: Phase 2 program
[8] = system: subjects with refractory gout; details: doses of 4 to 12 mg, within 24 to 72 hours, from 11.1±0.6 mg/dL
[9] = diluted in infusion bags
[10] = system: organ transplant recipients; details: in vivo
[11] = system: patients with lupus nephritis; details: in vivo

COc1c(C)c2c(c(O)c1C/C=C(\C)CCC(=O)OCCN1CCOCC1)C(=O)OC2 [Mycophenolate mofetil, 2-morpholinoethyl (E)-6-(1,3-dihydro4-hydroxy-6-methoxy-7-methyl-3-oxo-5-isobenzofuranyl)-4-methyl-4-hexenoate]
Detectable in urine [1]: no mycophenolate mofetil or mercaptopurine is detectable in urine | Bound to serum proteins [1]: 30% | Absorption following oral administration ([1]; oral): well absorbed | Increased susceptibility to infection ([2]; RA): < 1% | Leukopenia ([2]; RA): 28% | Nausea and vomiting ([2]; RA): 12% | Increased susceptibility to infection ([2]; renal transplant): 20% | Leukopenia ([2]; renal transplant): > 50% | Neoplasia (lymphoma) ([2]; renal transplant): 0.5% | Neoplasia (other than lymphoma) ([2]; renal transplant): 3% | Teratogenic effects [3]: teratogenic effects | Teratogenic effects [4]: teratogenic effects

Oc1ncnc2[nH]ncc12 [allopurinol]
Patients who develop allergic reactions [5]: Approximately 2% | Patients with severe hypersensitivity syndrome [5]: about 0.4%

Sc1ncnc2nc[nH]c12 [mercaptopurine, 6-mercaptopurine]
Detectable in urine [1]: no mycophenolate mofetil or mercaptopurine is detectable in urine | Bound to serum proteins [1]: 30%

pegloticase
Patients maintaining a response, antibody titer exceeding 1:2430 at any time ([6]; 7 of 65 patients, another study): 10.8% | Patients with IRs in whom loss of response (return to SUA ≥6 mg/dL) preceded the first IR ([6]; 20/21): 95% | Patients with titers exceeding 1:2430 who developed IRs ([6]; 31 of 52): 60% | Patients maintaining a response, never had an antibody titer above 1:2430 ([6]; 58/65, another study): 89.2% | Patients who developed high titer anti-pegloticase antibodies and subsequently lost response ([6]; 69 of 169 patients, one study): 41% | Occurrence of most common adverse reactions (gout flares, infusion reactions, nausea, contusion or ecchymosis, nasopharyngitis, constipation, chest pain, anaphylaxis, vomiting) ([6]; KXX-treated patients): ≥ 5% | Occurrence of ecchymoses, sore throat, constipation, chest pain, and vomiting ([6]; patients treated with pegloticase): at least 5% | Incidence of infusion-related reactions ([6]; pooled Phase 3, 8 mg biweekly dosing): 26% | Incidence of infusion-related reactions ([6]; pooled Phase 3, 8 mg every-4-week dosing regimen): 40% | Anaphylaxis frequency ([6]; pre-marketing controlled clinical trials): 6.5% | Infusion reactions reported ([6]; pre-marketing controlled clinical trials, 8 mg every 2 weeks): 26% | Participants with high antibody titers who maintained a response (serum urate <6 mg/dL) ([6]; second study): 1 of 52 | Participants with high titers who developed IR ([6]; second study): 60% | Dose-response plateau dose [7]: 12 mg | Minimally effective dose [7]: 4 mg | Safe and optimally effective dose [7]: 8 mg | pUAc (plasma urate concentration) after dosing, mean±SD [8]: 1.0±0.5 mg/dL | Stability of diluted solution ([9]; 2° C. to 8° C.): 4 h | Stability of diluted solution ([9]; room temperature (20° C. to 25° C.)): 4 h | Organ transplant recipients with a sustained high titer Ab response to pegloticase [10]: one out of seven

rituximab: biologic arm of a lupus nephritis RCT on top of MMF and glucocorticoids
Rate of serious infections [11]: 16.6 /100 patient-years
